11 compounds from ChEMBL document CHEMBL1201862, “PubChem BioAssay data set” (2004) can be followed below.

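These data come from cells grown in 96-well plates and exposed to compound for 48 hours at five concentrations. GI50: concentration for 50% inhibition of growth.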 Calls of active or inactive are those of the source. Rule as the data show it: active = GI50 up to about 1.1 µM and inactive = higher.

What all share (assay): growth of human tumour cells (NCI), 48 h
The test system of assay [1] is SF-295.
The subject of assay [2] is ACHN.
Assay [3] has as its system SK-MEL-5.
The test system of assay [4] is NCI/ADR-RES.
For assay [5], the system named is SK-OV-3.
Assay [6] deals with EKVX.
For assay [7], the system named is CAKI-1.
Assay [8] concerns MOLT-4.
The subject of assay [9] is RXF 393.
Assay [10] relates to KM12.
In assay [11] the test system is T47D.
Assay [12] has as its system M14.
In assay [13] the test system is SK-MEL-2.
In assay [14] the test system is SN12C.
Assay [15] has as its system IGROV-1.
Assay [16] has as its system CCRF-CEM.
Assay [17] deals with HOP-62.
In assay [18] the test system is MCF7.
Assay [19] deals with SF-539.

Regarding `COc1ccc(C=O)cc1Oc1ccc(C[C@H]2c3c(cc(OC)c4c3Oc3cc5c(cc3O4)CCN(C)C5=O)CCN2C)cc1`, the GI50 is 7.41 µM (inactive) in [1]; 8.43 µM (inactive) in assay [2]; 7.33 µM (inactive) in assay [3]; 8.07 µM (inactive) in assay [4]; 6.73 µM (inactive) in assay [5]; 9.4 µM (inactive) in [6]. Further, the GI50 in [7] was 18.7 µM (inactive); in assay [8] it was 9.95 µM (inactive); in assay [9], 3.59 µM (inactive); in assay [10], 8.91 µM (inactive); in assay [11] it was 33.7 µM (inactive); in [12] it was 8.65 µM (inactive). Besides, the GI50 was 11.5 µM (inactive) in assay [13]; 12.9 µM (inactive) in [14]; 7.16 µM (inactive) in assay [15]; 10 µM (inactive) in [16]; 8.32 µM (inactive) in [17]; 7.66 µM (inactive) in assay [18]. Besides, in assay [19], the GI50 is 8.67 µM (inactive).
For `CCOC(=O)C1(Cc2ccccc2)CCN(C(=O)c2ccccc2)C2C1C2(Cl)Cl` (centres undefined), the GI50 in [1] was 23.3 µM (inactive); in assay [2], 21.6 µM (inactive); in assay [3], 15.9 µM (inactive); in [4], 21.3 µM (inactive); in assay [5], 28.6 µM (inactive); in assay [6], 19.3 µM (inactive). Moreover, the GI50 was 24.3 µM (inactive) in assay [7]; 20 µM (inactive) in [8]; 16 µM (inactive) in assay [9]; 29.9 µM (inactive) in assay [10]; 14.1 µM (inactive) in [11]; 18.3 µM (inactive) in [12]. The GI50 in assay [13] is 15.6 µM (inactive); in assay [14], 16.4 µM (inactive); in [15], 31.2 µM (inactive); in [16] it was 20 µM (inactive); in assay [17] it was 27.6 µM (inactive); in assay [18] it was 25.4 µM (inactive). Moreover, in assay [19], the GI50 is 18 µM (inactive).
Turning to `Cn1c(=O)c2c(no[n+]2[O-])c2ccccc21`, the GI50 in assay [1] is 21.6 µM (inactive); in [2] it was 26.5 µM (inactive); in assay [3], 12.4 µM (inactive); in assay [4], 20.8 µM (inactive); in assay [5] it was 33 µM (inactive); in assay [6], 18.3 µM (inactive). Also, the GI50 in assay [7] is 18.2 µM (inactive); in assay [8] it was 10.5 µM (inactive); in assay [9] it was 19.9 µM (inactive); in assay [10], 12.4 µM (inactive); in [11], 21.6 µM (inactive); in assay [12], 12.4 µM (inactive). Also, the GI50 was 12.4 µM (inactive) in assay [13]; 22.8 µM (inactive) in [14]; 7.24 µM (inactive) in [15]; 12.8 µM (inactive) in assay [16]; 17.3 µM (inactive) in [17]; 24.7 µM (inactive) in [18]. Besides, the GI50 in assay [19] is 25.8 µM (inactive).
For the compound `c1ccc(CC(Nc2cccnc2)c2ccccc2)cc1` (centres undefined), the GI50 in assay [1] was 18.5 µM (inactive); in assay [2], 37.7 µM (inactive); in assay [3] it was 15.7 µM (inactive); in [4], 21.9 µM (inactive); in [5], 31.7 µM (inactive); in assay [6], 24.2 µM (inactive). Besides, the GI50 is 32.4 µM (inactive) in assay [7]; 16.4 µM (inactive) in assay [8]; 18.6 µM (inactive) in assay [9]; 24.2 µM (inactive) in assay [10]; 28.1 µM (inactive) in assay [11]; 17.9 µM (inactive) in assay [12]. Further, the GI50 in assay [13] was 18.4 µM (inactive); in assay [14], 20.6 µM (inactive); in [15] it was 31 µM (inactive); in assay [16] it was 16.4 µM (inactive); in assay [17], 24.5 µM (inactive); in assay [18], 28.9 µM (inactive). The GI50 in assay [19] was 20.6 µM (inactive).
`COc1ccc(CNc2nc(NC3CCCCC3)nc(NC3CCCCC3)n2)cc1`: the GI50 in assay [1] was 9.66 µM (inactive); in assay [2] it was 5.35 µM (inactive); in assay [3], 3.56 µM (inactive); in assay [4] it was 4.24 µM (inactive); in [5] it was > 100 µM (inactive); in assay [6] it was 4.78 µM (inactive). Also, the GI50 in assay [7] is 5.14 µM (inactive); in [8], 4.25 µM (inactive); in assay [9] it was 3.09 µM (inactive); in assay [10], 1.21 µM (inactive); in [11], 3.41 µM (inactive); in assay [12], 4.42 µM (inactive). For the same compound, the GI50 in [13] is 11.4 µM (inactive); in assay [14], 6.53 µM (inactive); in assay [15] it was 4.76 µM (inactive); in [16] it was 4.63 µM (inactive); in assay [17], 8.18 µM (inactive); in [18], 3.78 µM (inactive). Further, the GI50 in [19] is 8.28 µM (inactive).
Consider `COc1ccc2c(c1)c(=O)c1c(NCCNCCO)ccc3c(=O)n(CCN(C)C)c(=O)n2c31`, for which the GI50 was 0.0861 µM (active) in assay [1]; 0.027 µM (active) in assay [2]; 0.0562 µM (active) in assay [3]; 1.26 µM (inactive) in assay [4]; 0.251 µM (active) in assay [5]; 0.0889 µM (active) in [6]. Besides, the GI50 in [7] was 0.0537 µM (active); in [8], < 0.01 µM (active); in [9], 0.114 µM (active); in assay [10], 0.142 µM (active); in assay [11], 0.0769 µM (active); in [12], 0.27 µM (active). The GI50 is 0.243 µM (active) in assay [13]; < 0.0198 µM (active) in assay [14]; 0.0279 µM (active) in assay [15]; 0.104 µM (active) in assay [16]; 0.109 µM (active) in [17]; < 0.0276 µM (active) in [18]. Besides, the GI50 in assay [19] was < 0.0265 µM (active).
Consider `N#CC1(C#N)[C@@H]2CCC=C(Sc3ccccc3)[C@@H]21`, for which the GI50 in assay [1] is 16.5 µM (inactive); in [2] it was 15.5 µM (inactive); in assay [3] it was 13.9 µM (inactive); in assay [4] it was 18.4 µM (inactive); in [5], 19.5 µM (inactive); in [6], 18.5 µM (inactive). Besides, the GI50 is 13.6 µM (inactive) in assay [7]; 14.5 µM (inactive) in [8]; 13 µM (inactive) in assay [9]; 14.9 µM (inactive) in assay [10]; 22.1 µM (inactive) in assay [11]; 13.2 µM (inactive) in [12]. The GI50 is 14.6 µM (inactive) in assay [13]; 16.4 µM (inactive) in assay [14]; 19.8 µM (inactive) in assay [15]; 5.71 µM (inactive) in [16]; 10.4 µM (inactive) in assay [18]; 15.5 µM (inactive) in assay [19].
In the case of `O=c1c2cc(-c3ccccc3)cnc2sn1-c1ccc([N+](=O)[O-])cc1`, the GI50 in assay [1] was 27 µM (inactive); in [2], 24.9 µM (inactive); in assay [4], 32.7 µM (inactive); in assay [5], 26.9 µM (inactive); in assay [6], 53 µM (inactive); in assay [7], 39.6 µM (inactive). Besides, the GI50 is 71.3 µM (inactive) in assay [8]; 29.9 µM (inactive) in assay [9]; 38.9 µM (inactive) in [10]; 44.1 µM (inactive) in [11]; 50.6 µM (inactive) in assay [12]; 35.6 µM (inactive) in [13]. The GI50 in assay [14] was 60 µM (inactive); in assay [15], 29.6 µM (inactive); in assay [16] it was 19 µM (inactive); in assay [17], 26.5 µM (inactive); in assay [18] it was 49 µM (inactive); in assay [19], 42.7 µM (inactive).
As for `c1ccc(/N=C(\N2CCOCC2)N(CCN2CCOCC2)c2ccccc2)cc1`, the GI50 is > 100 µM (inactive) in assay [1]; > 100 µM (inactive) in [3]; > 10 µM (inactive) in assay [4]; > 100 µM (inactive) in [5]; > 100 µM (inactive) in [6]; > 100 µM (inactive) in assay [7]. Besides, the GI50 in assay [8], in assay [9], in [10], in assay [11], in [12] and in assay [13] was > 100 µM (inactive) in each case. For the same compound, the GI50 in [14], in assay [15], in assay [16], in assay [17], in [18] and in assay [19] was > 100 µM (inactive) each time.
With `OC1CCN(c2c3ccccc3nc3ccccc23)CC1`, the GI50 in assay [1] is 27.9 µM (inactive); in assay [2], 8.71 µM (inactive); in assay [3], 19.7 µM (inactive); in assay [4], > 100 µM (inactive); in [5], 39.7 µM (inactive); in assay [6], 55.2 µM (inactive). Also, the GI50 in assay [7] is 20.1 µM (inactive); in assay [8] it was 4.73 µM (inactive); in [9], 4.55 µM (inactive); in assay [10] it was 37.2 µM (inactive); in [11] it was 1.51 µM (inactive); in [12] it was 6.92 µM (inactive). Further, the GI50 is 5.52 µM (inactive) in assay [13]; 32.4 µM (inactive) in assay [14]; 14.6 µM (inactive) in [15]; 34.4 µM (inactive) in [17]; 2.79 µM (inactive) in assay [18]; 33 µM (inactive) in [19].
For `OC1CCC(C2C3CCCCC3C3CCCCC3C2C2CCC(O)CC2)CC1` (centres undefined), the GI50 was 4.28 µM (inactive) in [1]; 2.98 µM (inactive) in assay [2]; 10.4 µM (inactive) in [3]; 4.58 µM (inactive) in assay [4]; 5.19 µM (inactive) in assay [5]; 9.89 µM (inactive) in assay [6]. Besides, the GI50 is 3.62 µM (inactive) in assay [7]; 4.39 µM (inactive) in assay [8]; 2.9 µM (inactive) in assay [9]; 3.33 µM (inactive) in assay [10]; 5.26 µM (inactive) in assay [11]; 5.19 µM (inactive) in [12]. Further, the GI50 in assay [13] is 5.56 µM (inactive); in [14], 5.13 µM (inactive); in assay [15], 3.7 µM (inactive); in assay [17] it was 5.04 µM (inactive); in [18], 3.4 µM (inactive); in assay [19] it was 10.6 µM (inactive).
